Experimental data as given in patent US20050234113A1, “Antioxidant and radical scavenging activity of synthetic analogs of desferrithiocin” (University of Florida Research Foundation, Inc., priority 2002, published 2005).
Where “and” joins values, the source holds several entries; their conditions need not be identical. Equal values may be shown once. Entries after “also recorded” stand apart in the source; their conditions may differ. Read-outs that look alike come from different tables or passages of the source. Marks after values point to notes of the source that are not given here.

Legend:
[1] = Prevention of iron-mediated oxidation of ascorbate (ascorbate-mediated reduction of Fe(III)); conditions: ascorbate 100 μM, FeCl3 30 μM, pH 7.4, ligand/Fe ratios 0-3, 40 min
[2] = Quenching of the ABTS radical cation; conditions: Table 5; 6-min reaction, initial OD 1.000
[3] = tested on: Myeloperoxidase (MPO) activity in colonic tissue; experiment: Myeloperoxidase (MPO) assay in colonic tissue of rats with acetic acid-induced colitis; assay type: in vivo; conditions: 650 μmol kg^−1 intracolonically 30 min before 4% acetic acid, mean ± standard deviation
Protocol: The ligands were administered to the rats intracolonically as a suspension or solution in distilled water (2 mL) at a dose of 650 μmol kg^−1. The drug solutions were made fresh for each experiment. ROWASA®, the pharmaceutical preparation which contains 5-ASA (2 mL, 66.7 mg mL^−1) was given at a dose of 2318 μmol kg^−1. Control rats received distilled water (2 mL), administered intracolonically.
Animal care and experimental procedures were approved by the Institutional Animal Care and Use Committee. Colitis was induced by a modification of published methods. Briefly, the rats were anesthetized with sodium pentobarbital, 55 mg kg^−1 intraperitoneally. The abdomen was shaved and prepared for surgery. A midline incision was made, and the cecum and proximal colon were exteriorized. A reversible suture was placed at the junction of the cecum and proximal colon. The colon was rinsed with saline (10 mL), and the fluid and intestinal contents were gently expressed out the rectum. A gum-based rectal plug was inserted. The compound of interest, or distilled water in the control animals (2 mL), was injected intracolonically just distal to the ligature. The cecum and proximal colon were returned to the abdominal cavity; the compound was allowed to remain in the gut for 30 min. Then, the cecum and proximal colon were reexteriorized. The rectal plug was removed, and the drug was gently expressed out of the colon. Acetic acid (4%, 2 mL) was injected into the proximal colon over a 15-20-second time period. The acid was allowed to remain in the gut until one minute had passed (i.e., 40-45 seconds after the end of the acid administration). The no acid control rats received distilled water (2 mL), which was administered in the same manner as was the acetic acid. Air (10 mL) was then injected into the proximal colon to expel the acid or water. The cecal/proximal colon ligature was removed, the gut was returned to the abdominal cavity, and the incisions were closed. The animals were allowed to recover overnight and were sacrificed 24 hr later. The entire length of the colon was removed and assessed for damage both densitometrically and biochemically.
The activity of MPO was measured in colonic tissue by a modification of the method of Krawisz et al. in Gastroenterology 87, 1344-1350 (1984). Each excised colon was homogenized in 9 volumes of homogenization buffer (0.5% hexadecyltrimethylammonium bromide (HDTMA) in 50 mM sodium acetate, pH 6.0); this homogenate was centrifuged at 1200 g for 20 min at 4° C. A sample of the supernatant (1.8 mL) was transferred into a microcentrifuge tube and stored frozen at −20° C. for up to one week. Prior to assay, the thawed aliquot was centrifuged at about 10,000 g for 15 minutes at 4° C. The final supernatant (33 μL) was added to a solution of o-dianisidine HCl (0.17 mg mL^−1 in 50 mM sodium acetate, pH 6.0, made fresh daily and filtered immediately before use) (950 μL), the mixture was vortexed, and the peroxidase reaction was initiated by the addition of H2O2 to 50 mM sodium acetate, pH 6.0, made fresh daily (16.7 μL). The A470 at room temperature (ca. 23° C.) was read at 15-second intervals for 2 min. The rates were assessed graphically and are presented as change in milliabsorbance units (ΔmAU)/min per g tissue. Under these conditions, 0.1 “Unit” of purified human leukocyte myeloperoxidase (Sigma M-6908) produced a ΔA470 of about 400 mAU/min.
The biochemical measurement involves measuring the level of MPO in a sample of homogenate of the whole rat colon. When the colon is damaged by the acetic acid, there is an extravasation of neutrophils. The extent of this infiltration can serve as a quantitative marker for tissue damage. Although other leukocytes, such as eosinophils and monocytes, also contribute to the inflammatory response, their contribution is small; the majority of the cells recruited during the acute inflammatory response are neutrophils. […]

iron [4] = conditions: cited from earlier work
iron [5] = conditions: cited from earlier work; remark: listed apart in the source
[6] = 150 μmol/kg sc, suspension in water, n = 3
[7] = 300 μmol/kg po, in 40% Cremophor
[8] = 150 μmol/kg po (footnote d: dose administered, 300 μmol/kg)

O=C(O)[C@H]1CSC(c2ccc(O)cc2O)=N1 [4′-(HO)-DADMDFT, 4′-hydroxydesazadesmethyldesferrithiocin]
effect on ascorbate-mediated reduction of Fe(III) (in words) [1]: significant protection
Slope × 10^3 OD units/μM (ABTS radical cation quenching) [2]: −102 × 10^3 OD units/μM
MPO activity [3]: 56466 ± 52617 mAU min^−1g of colonic tissue^−1
% stool (of iron excreted), monkeys (iron [4]; [6]): 92%
% urine (of iron excreted), monkeys (iron [4]; [6]): 8%
efficiency in monkeys (%) (iron [4]; [6]): 5.6±0.9% and 5.6 ± 0.9^f %
% stool (of iron excreted), monkeys (iron [4]; [7]): 90%
% urine (of iron excreted), monkeys (iron [4]; [7]): 10%
efficiency in monkeys (%) (iron [4]; [7]): 5.3±1.7% and 5.3 ± 1.7^f %

CC(=O)N(O)CCCCCNC(=O)CCC(=O)N(O)CCCCCNC(=O)CCC(=O)N(O)CCCCCN [DFO, Desferrioxamine B, reference compound]
effect on ascorbate-mediated reduction of Fe(III) (in words) [1]: inhibited; also recorded: significant inhibition
MPO activity [3]: 20049 ± 17314 mAU min^−1g of colonic tissue^−1
% stool (of iron excreted), monkeys (iron [4]; [8]): 55%
% urine (of iron excreted), monkeys (iron [4]; [8]): 45%
efficiency in monkeys (%) (iron [4]; [8]): 0.1±0.4% and 0.1 ± 0.4^d %
% stool (of iron excreted), monkeys (iron [4]; 150 μmol/kg sc, n = 5): 45%
% urine (of iron excreted), monkeys (iron [4]; 150 μmol/kg sc, n = 5): 55%
efficiency in monkeys (%) (iron [4]; 150 μmol/kg sc, n = 5): 5.5±0.9%
% bile (of iron excreted), rodents (iron [5]; 150 μmol/kg po, n = 3): 87%
% urine (of iron excreted), rodents (iron [5]; 150 μmol/kg po, n = 3): 13%
efficiency in rodents (%) (iron [5]; 150 μmol/kg po, n = 3): 1.1 ± 0.6^c %
% bile (of iron excreted), rodents (iron [5]; 150 μmol/kg sc, n = 6): 75%
% urine (of iron excreted), rodents (iron [5]; 150 μmol/kg sc, n = 6): 25%
efficiency in rodents (%) (iron [5]; 150 μmol/kg sc, n = 6): 2.8 ± 0.7%
